Experimental data from publication PMC11784183, “Identification of an antibiotic from an HTS targeting EF-Tu:tRNA interaction: a prospective topical treatment for MRSA skin infections” (Applied and Environmental Microbiology, 2024).
Converted amounts (≈) assume the structure as drawn. Read-outs that look alike come from different tables or passages of the source.

Assays:
S. aureus USA300 = conditions: 15 µM, 0-4 h
Procedure: S. aureus USA300 was inoculated 1:100 into LB medium from overnight cultures. Cells were grown to the early exponential phase and back diluted to OD600 0.1. […] Samples were serially diluted and plated on LB agar. Colonies were enumerated after overnight incubation at 37°C. Time-kill experiments were performed with n = 4 biological replicates.

S. cohnii = experiment: MIC testing by broth microdilution; format: cell-based; conditions: Staphylococcus cohnii; BK strain 22939
S. haemolyticus = experiment: MIC testing by broth microdilution; format: cell-based; conditions: Staphylococcus haemolyticus; BK strain 21148
[1] = tested on: S. aureus USA300 subcutaneous infection; experiment: Mouse skin infection model, topical ointment; format: in vivo, mice; conditions: topical ointment daily
[2] = tested on: K. pneumoniae (ATCC 43816); experiment: Drug susceptibility assay (96-well, MIC); format: cell-based; conditions: Klebsiella pneumoniae, ATCC43816; Gram-negative
[3] = tested on: A. baumannii (ATCC 17988); experiment: Drug susceptibility assay (96-well, MIC); format: cell-based; conditions: Acinetobacter baumannii, ATCC17988; Gram-negative
S. capitis = experiment: MIC testing by broth microdilution; format: cell-based; conditions: Staphylococcus capitis
ERβ receptor = tested on: ERβ receptor; parameters: method as in PMID 9927308; conditions: cited from earlier work
[4] = tested on: M. tuberculosis H37Rv (ATTC 27294); experiment: Drug susceptibility assay (96-well, MIC); format: cell-based; conditions: Mycobacterium tuberculosis, Acid-fast
S. warneri = experiment: MIC testing by broth microdilution; format: cell-based
S. aureus = experiment: Drug susceptibility assay (96-well, MIC); format: cell-based; conditions: Staphylococcus aureus
[5] = tested on: P. aeruginosa (ATCC BAA47); experiment: Drug susceptibility assay (96-well, MIC); format: cell-based; conditions: Pseudomonas aeruginosa, ATCCBAA47; Gram-negative
E. coli = experiment: Inhibition of bacterial growth; format: cell-based; conditions: not shown
Procedure: (§1) Strains and reagents were the same as in the zone-inhibition assay (above). […] The culture was diluted again 1/500 in 1 mL of fresh media with the presence of increasing concentrations of tested compound or 1% DMSO as a control.

S. sciuri = experiment: MIC testing by broth microdilution; format: cell-based
[6] = tested on: ribosomal translation in vitro (PURExpress); experiment: Purified in vitro translation assay (PURExpress); format: biochemical; conditions: highest concentration tested
Excerpt: (A) Coomassie blue staining of sodium dodecyl sulfate polyacrylamide gel electrophoresis (SDS-PAGE) following in vitro translation with the PURExpress translation kit (New England Biolabs). The protein synthesized (Dihydrofolate reductase) in the reaction is shown in the small rectangles superimposed on the gel. (B) Quantification using a BioRad gel scanner and software provided with this scanner.
PURExpress in vitro purified ribosomal translation kit (New England Biolabs) was used. Biochemical protocols used were as described by the manufacturer.

S. xylosus = experiment: MIC testing by broth microdilution; format: cell-based; conditions: Staphylococcus xylosus; BK strain 26203
S. lugdunensis = experiment: MIC testing by broth microdilution; format: cell-based
S. epidermidis = experiment: MIC testing by broth microdilution; format: cell-based
[7] = male, C57B6, mouse, in vivo, ip, 10 mg/kg, 7 h
[8] = format: in vitro ADME, human
Procedure: (§2) Briefly, each reaction mixture (110 µL) consisted of a test article (1 µM), mix gender human, male Sprague Dawley rat or male CD-1 mouse microsomal fractions (0.5 mg/mL), and NADPH regenerating system in phosphate buffer at pH 7.4. Samples were incubated in 384-well plates at 37°C for 0, 5, 10, 15, 30, and 60 min. Sample analysis and half-life calculations were performed using a previously described method ([22]). The three controls used were Buspirone (short half-life), Loperamide (moderate half-life), and Antipyrine (long half-life).
(§3) Categories were defined as follows: unstable, t1/2 < 30 min; stable, t1/2 > 30 min.

[9] = format: in vitro ADME, rat
Procedure: as §2, §3

S. saprophyticus = experiment: MIC testing by broth microdilution; format: cell-based
S. lentus = experiment: MIC testing by broth microdilution; format: cell-based
S. caprae = experiment: MIC testing by broth microdilution; format: cell-based; conditions: BK strain 22945
B. subtilis = experiment: Inhibition of bacterial growth in liquid culture; format: cell-based; conditions: Bacillus subtilis
Procedure: as §1

[10] = mouse, in vivo, ip, 10 mg/kg
in vivo = conditions: male, C57B6, mouse, ip, 10 mg/kg
Staphylococcus aureus = experiment: MIC testing by broth microdilution; format: cell-based
S. pseudintermedius = experiment: MIC testing by broth microdilution; format: cell-based
S. simulans = experiment: MIC testing by broth microdilution; format: cell-based; conditions: Staphylococcus simulans; BK strain 26201
[11] = tested on: non-aureus staphylococcal strains (14 species); experiment: MIC testing by broth microdilution, panel of non-aureus staphylococcal strains; format: cell-based, Staphylococcus spp.; conditions: Staphylococcus; for 18 of 23 other Staphylococcal strains; read-out: MIC90 and MIC50
S. gallinarum = experiment: MIC testing by broth microdilution; format: cell-based; conditions: BK strain 26189

Procedure for Vero cells (ATCC CCL-81): Compounds were tested for cytotoxicity against Vero cells using the CellTiter 96 AQueous One Solution Assay kit (Promega). Vero cells were seeded in 96-well plates at a density of 2 × 10^4 cells per well, and the plates were incubated for 4 h at 37°C to allow attachments of the Vero cells. Chemical compounds being tested were then added to the wells starting from a final concentration of 50 µg/mL and making 12 1:2 dilutions. Cells were incubated for 72 h at 37°C, after which 20 µL of freshly prepared MTS:PMS reagents were added to each well. Plates were incubated for 2 h and then read at an absorbance of 490 nm.

SMILES: CC[C@@H]1Cc2cc(O)ccc2C2=C1c1ccc(O)cc1C[C@H]2CC [MGC-10]
- bactericidal test (CFU/mL over time) (S. aureus USA300): notable bactericidal activity
- MIC (S. cohnii): 12 µM (≈ 3.85 µg/mL)
- MIC (S. haemolyticus): 12 µM (≈ 3.85 µg/mL)
- dermonecrosis as a result of S. aureus infection (area over time) ([1]; 5 days, vs untreated control (ointment without drug)): able to reduce dermonecrosis
- bacterial burden in punch biopsies ([1]; day 5, vs untreated control): not statistically significant (P = 0.0575)
- MIC [2]: > 100 µM
- MIC [3]: > 100 µM
- MIC (S. capitis; BK strain 22034): 12 µM (≈ 3.85 µg/mL)
- MIC (S. capitis; BK strain 24463): 6 µM (≈ 1.92 µg/mL)
- activity at ERβ receptor (ERβ receptor): antagonist
- MIC [4]: 100 µM (≈ 32 µg/mL)
- MIC (S. warneri; BK strain 26202): 6 µM (≈ 1.92 µg/mL)
- MIC (S. warneri; Staphylococcus warneri, BK strain 24473): 6 µM (≈ 1.92 µg/mL)
- MIC (S. aureus; ATCC25923): 6.25 µM (≈ 2 µg/mL)
- MIC (S. aureus; ATCC35556): 6.25 µM (≈ 2 µg/mL)
- MIC (S. aureus; ATCC 43300 / MRSA, S. aureus mecA + (MRSA) (ATCC 43300), Gram-positive, read-out: MIC): 6.25 µM
- MIC [5]: > 100 µM
- inhibition of growth of E. coli (E. coli): No inhibition
- MIC (S. sciuri; BK strain 26200): 6 µM (≈ 1.92 µg/mL)
- MIC (S. sciuri; Mammaliicoccus sciuri, BK strain 26199): 6 µM (≈ 1.92 µg/mL)
- complete inhibition of translation [6]: complete inhibition was not achieved
- MIC (S. xylosus): 6 µM (≈ 1.92 µg/mL)
- MIC (S. lugdunensis; BK strain 28088, Methicillin R): 6 µM (≈ 1.92 µg/mL)
- MIC (S. lugdunensis; Staphylococcus lugdunensis, BK strain 26192): 6 µM (≈ 1.92 µg/mL)
- cytotoxicity against Vero mammalian cells (Vero cells (ATCC CCL-81)): no cytotoxicity
- MIC (cytotoxicity, Vero) (Vero cells (ATCC CCL-81); African green monkey, 72 h): 50 µM (≈ 16 µg/mL)
- MIC (S. epidermidis; BK strain 26974, Methicillin R): 6 µM (≈ 1.92 µg/mL)
- MIC (S. epidermidis; Staphylococcus epidermidis, BK strain 21192, Methicillin R): 6 µM (≈ 1.92 µg/mL)
- Clast [7]: 532 ng/mL
- depletion of the compound in liver microsomes [8]: no depletion
- depletion of the compound in liver microsomes [9]: no depletion
- MIC (S. saprophyticus; BK strain 26195): 6 µM (≈ 1.92 µg/mL)
- MIC (S. saprophyticus; Staphylococcus saprophyticus, BK strain 26194): 6 µM (≈ 1.92 µg/mL)
- MIC (S. lentus; BK strain 26639, Methicillin R): 6 µM (≈ 1.92 µg/mL)
- MIC (S. lentus; Mammaliicoccus lentus, BK strain 26191): 6 µM (≈ 1.92 µg/mL)
- MIC (S. caprae): 6 µM (≈ 1.92 µg/mL)
- inhibition at 6 µM (B. subtilis): 97%
- in-life observations [10]: exhibited hunched postures; and were lethargic
- AUC(0-inf) (in vivo): 171 µg·h/mL
- half-life (in vivo): 126 min
- concentration at 7 h (in vivo; Clast): 733 ng/mL
- MIC (Staphylococcus aureus; MRSA / USA300, BK strain 19494, CC 8, USA300, MRSA): 6 µM (≈ 1.92 µg/mL)
- MIC (Staphylococcus aureus; MRSA / USA300 / USA500, MRSA clinical isolates typed as USA300 and USA500): 6 µM (≈ 1.92 µg/mL)
- MIC (Staphylococcus aureus; MRSA / USA400, BK strain 19484, CC 1, USA400, MRSA): 6 µM (≈ 1.92 µg/mL)
- MIC (Staphylococcus aureus; MRSA / USA600, BK strain 18519, CC 45, USA600, MRSA): 6 µM (≈ 1.92 µg/mL)
- MIC (Staphylococcus aureus; MRSA / USA800, BK strain 18267, CC 5, USA800, MRSA): 6 µM (≈ 1.92 µg/mL)
- MIC (Staphylococcus aureus; MRSA, BK strain 13180, CC 8, Trimethoprim-sulfamethoxazole resistant): 6 µM (≈ 1.92 µg/mL)
- MIC (Staphylococcus aureus; MRSA, BK strain 21209, CC 8, Linezolid resistant): 6 µM (≈ 1.92 µg/mL)
- MIC (Staphylococcus aureus; MRSA, BK strain 21346, CC 5, Tigecycline resistant): 6 µM (≈ 1.92 µg/mL)
- MIC (Staphylococcus aureus; MRSA, BK strain 21347, CC 22, Linezolid resistant): 6 µM (≈ 1.92 µg/mL)
- MIC (Staphylococcus aureus; MRSA, BK strain 22522, CC 5, Vancomycin resistant (vanA+), MRSA): 6 µM (≈ 1.92 µg/mL)
- MIC (Staphylococcus aureus; MRSA, BK strain 22523, CC 5, Vancomycin resistant (vanA+), MRSA): 6 µM (≈ 1.92 µg/mL)
- MIC (Staphylococcus aureus; MRSA, BK strain 23735, CC 125, BORSA): 6 µM (≈ 1.92 µg/mL)
- MIC (Staphylococcus aureus; MRSA, BK strain 23736, CC 1, BORSA): 6 µM (≈ 1.92 µg/mL)
- MIC (Staphylococcus aureus; MRSA, BK strain 26638, CC 398, LA-MRSA): 6 µM (≈ 1.92 µg/mL)
- MIC (Staphylococcus aureus; MRSA, BK strain 46376, CC 8, hVISA): 6 µM (≈ 1.92 µg/mL)
- MIC (Staphylococcus aureus; MRSA, BK strain 46377, CC 8, hVISA): 6 µM (≈ 1.92 µg/mL)
- MIC (Staphylococcus aureus; MRSA, BK strain 58711, CC 5, Rifampin resistant): 6 µM (≈ 1.92 µg/mL)
- MIC (Staphylococcus aureus; MRSA, BK strain 59775, CC 8, Trimethoprim-sulfamethoxazole resistant): 6 µM (≈ 1.92 µg/mL)
- MIC (Staphylococcus aureus; MRSA, BK strain 61828, CC 398, MRSA): 6 µM (≈ 1.92 µg/mL)
- MIC (Staphylococcus aureus; MRSA, BK strain 62861, CC 45, MRSA): 6 µM (≈ 1.92 µg/mL)
- MIC (Staphylococcus aureus; MRSA, BK strain 62874, CC 59, MRSA): 6 µM (≈ 1.92 µg/mL)
- MIC (Staphylococcus aureus; MRSA, BK strain 62961, CC 5, MRSA): 6 µM (≈ 1.92 µg/mL)
- MIC (Staphylococcus aureus; MRSA, BK strain 62969, CC 5, MRSA): 6 µM (≈ 1.92 µg/mL)
- MIC (Staphylococcus aureus; MRSA, BK strain 62976, CC 398, MRSA): 6 µM (≈ 1.92 µg/mL)
- MIC (Staphylococcus aureus; MRSA, BK strain 63193, CC 30, MRSA): 6 µM (≈ 1.92 µg/mL)
- MIC (Staphylococcus aureus; MRSA, BK strain 63218, CC 8, MRSA): 6 µM (≈ 1.92 µg/mL)
- MIC (Staphylococcus aureus; MRSA, BK strain 63341, CC 8, MRSA): 6 µM (≈ 1.92 µg/mL)
- MIC (Staphylococcus aureus; MRSA, BK strain 63738, CC 59, MRSA): 6 µM (≈ 1.92 µg/mL)
- MIC (Staphylococcus aureus; MRSA, BK strain 63765, CC 30, MRSA): 12 µM (≈ 3.85 µg/mL)
- MIC (Staphylococcus aureus; MRSA, BK strain 63776, CC 398, MRSA): 6 µM (≈ 1.92 µg/mL)
- MIC (Staphylococcus aureus; MRSA, BK strain 63777, CC 45, MRSA): 6 µM (≈ 1.92 µg/mL)
- MIC (Staphylococcus aureus; MRSA, methicillin-resistant Staphylococcus aureus (MRSA), abstract): 6 µM (≈ 1.92 µg/mL)
- MIC (Staphylococcus aureus; MSSA / NCTC 8325, BK strain 21189, CC 8, MSSA (NCTC 8325)): 12 µM (≈ 3.85 µg/mL)
- MIC (Staphylococcus aureus; MSSA, BK strain 73239, Mupirocin R): 1.5 µM (≈ 0.481 µg/mL)
- MIC (Staphylococcus aureus; MSSA, BK strain 73242, Mupirocin R): 3 µM (≈ 0.961 µg/mL)
- MIC (Staphylococcus aureus; MSSA, BK strain 73250, Mupirocin R): 3 µM (≈ 0.961 µg/mL)
- MIC (Staphylococcus aureus; MSSA, BK strain 73267, Mupirocin R): 6 µM (≈ 1.92 µg/mL)
- MIC (Staphylococcus aureus; MSSA, BK strain 73269, Mupirocin R): 6 µM (≈ 1.92 µg/mL)
- MIC (Staphylococcus aureus; MSSA, BK strain 73336, Mupirocin R): 12 µM (≈ 3.85 µg/mL)
- MIC (Staphylococcus aureus; MSSA, BK strain 73337, Mupirocin R): 3 µM (≈ 0.961 µg/mL)
- MIC90 (Staphylococcus aureus; for 29 of 31 MRSA strains, read-out: MIC90 and MIC50): 6 µM (≈ 1.92 µg/mL)
- MIC (Staphylococcus aureus; laboratory S. aureus strain 8325): 12 µM (≈ 3.85 µg/mL)
- MIC (S. pseudintermedius; BK strain 24474): 6 µM (≈ 1.92 µg/mL)
- MIC (S. pseudintermedius; BK strain 25938): 6 µM (≈ 1.92 µg/mL)
- MIC (S. pseudintermedius; BK strain 26190): 12 µM (≈ 3.85 µg/mL)
- MIC (S. simulans): 6 µM (≈ 1.92 µg/mL)
- MIC90 [11]: 6 µM (≈ 1.92 µg/mL)
- MIC (S. gallinarum): 12 µM (≈ 3.85 µg/mL)
